Measured values as given in patent US5198358A, “Microorganism for producing C-31 desmethyl FR-900520 cyclic hemiketal immunosuppressant agent” (Merck & Co., Inc., priority 1991, dated 1993).
“And” between values parts separate entries of the source, which are not always exact repeats. Identical values can stand only once. “Also recorded” adds a separate entry of the source. Like-named read-outs stand apart in the source and are kept apart here.

How the values were obtained:
[1] = molecular target: T1, 31-O-desmethylimmunomycin O-methyltransferase (DIMT) (Streptomyces hygroscopicus, UniProt Q9KID5); experiment: S-adenosyl-L-methionine: 31-O-desmethylimmunomycin O-methyltransferase (DIMT) assay
T1 sequence (Q9KID5 1-260): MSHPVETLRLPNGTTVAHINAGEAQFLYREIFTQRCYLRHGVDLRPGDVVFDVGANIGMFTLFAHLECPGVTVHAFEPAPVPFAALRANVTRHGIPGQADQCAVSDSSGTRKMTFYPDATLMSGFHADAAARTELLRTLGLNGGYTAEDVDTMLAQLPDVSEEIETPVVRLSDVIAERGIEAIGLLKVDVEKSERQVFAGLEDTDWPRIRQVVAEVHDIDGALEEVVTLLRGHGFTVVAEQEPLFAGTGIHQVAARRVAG
Protocol: The assay was carried out in 1 ml. mixture containing 0.025 mM 31-desmethylimmunomycin, 1 mM MgSO4 and different quantities of the enzyme source in 50 mM phosphate buffer, pH 7.5. Reaction was initiated by the addition of 1 nmole of ^14 C-SAM (S-adenosyl-L-[methyl-^14 C] methionine with the specific activity of 46 mCi/mmole. Incubation of the complete mixture was carried out at 34° C. for 20 minutes and the reaction was terminated by the addition of ethyl acetate. Product of the reaction was extracted with 2 ml of ethyl acetate and 1 ml of the extract was used for TLC and HPLC analysis. For the analysis of the radioactive reaction product (immunomycin), the ethyl acetate extract was spiked with the standard immunomycin and subjected to the TLC with a plate having plastic support. The plastic sheet was developed in chloroform:methanol (9:1) and area showing standard immunomycin under UV-light was cut and the radioactivity in the cut-strip was measured. The amount of the product formed was calculated from the measured radioactivity. For the HPLC analysis of the product of the enzyme reaction, several enzymatic reaction mixtures were pooled and the extract was subjected to the TLC analysis as above. The area on the silica gel plate showing the band having an Rf value identical with the standard immunomycin was scraped and eluted with ethyl acetate. The ethyl acetate extract was washed with water, dried under nitrogen and the residue was subjected to the HPLC analysis on Partisil 5-ODS-3 column with acetonitrile:water:phosphoric acid (65:35:0.1) as the eluting solvent. One milliliter fractions were collected and a portion of each fraction was examined for the radioactivity.
Examination of the optimal temperature, pH and metal requirement of the DIMT activity was carried out on the enzyme preparation obtained from DEAE-Sepharose column. For kinetic analysis, a preparation which had been purified through a second MonoQ column chromatography was utilized.

[2] = tested on: Splenic T-cells stimulated with ionomycin + PMA; experiment: T-cell proliferation assay (ionomycin plus PMA induced T-cell stimulation); type: cell-based, mouse; settings: for Inhibition of T-cell activation (result in words): T-cell proliferation assay
Protocol: Cells were pelleted by centrifugation at 1500 rpm for 8 minutes. Contaminating red cells were removed by treating the pellet with ammonium chloride lysing buffer (GIBCO) for 2 minutes at 4° C. Cold medium was added and cells were again centrifuged at 1500 rpm for 8 minutes. T lymphocytes were then isolated by separation of the cell suspension on nylon wool columns as follows: Nylon wool columns were prepared by packing approximately 4 grams of washed and dried nylon wool into 20 ml plastic syringes. The columns were sterilized by autoclaving at 250° F. for 30 minutes. Nylon wool columns were wetted with warm (37° C.) culture medium and rinsed with the same medium. Washed spleen cells resuspended in warm medium were slowly applied to the nylon wool. The columns were then incubated in an upright position at 37° C. for 1 hour. Non-adherent T lymphocytes were eluted from the columns with warm culture medium and the cell suspensions were spun as above.
The cell suspension was immediately distributed into 96 well flat-bottom microculture plates (Costar) at 200 μl/well. […] The proliferation of T lymphocytes was assessed by measurement of tritiated thymidine incorporation. After 44 hours of culturing, the cells were pulse-labelled with 2 μCi/well of tritiated thymidine (NEN, Cambridge, Mass.). After another 4 hours of incubation, cultures were harvested on glass fiber filters using a multiple sample harvester. Radioactivity of filter discs corresponding to individual wells was measured by standard liquid scintillation counting methods (Betacounter). Mean counts per minute of replicate wells were calculated and the results expressed as percent inhibition of tritiated thymidine uptake (proliferation) as follows: [formula]

[3] = reputed; EPO Publication No. 0184162; cited from earlier work
[4] = substrate: C[S+](CC[C@H](N)C(=O)[O-])C[C@H]1O[C@@H](n2cnc3c(N)ncnc32)[C@H](O)[C@@H]1O; experiment: purified protein, by the assay type; settings: other: SAM as variable substrate, 25 umM 31-O-desmethylimmunomycin as cosubstrate; pH 7.5
Protocol: The assay was carried out in 1 ml. mixture containing 0.025 mM 31-desmethylimmunomycin, 1 mM MgSO4 and different quantities of the enzyme source in 50 mM phosphate buffer, pH 7.5. Reaction was initiated by the addition of 1 nmole of ^14 C-SAM (S-adenosyl-L-[methyl-^14 C] methionine with the specific activity of 46 mCi/mmole. Incubation of the complete mixture was carried out at 34° C. for 20 minutes and the reaction was terminated by the addition of ethyl acetate. Product of the reaction was extracted with 2 ml of ethyl acetate and 1 ml of the extract was used for TLC and HPLC analysis. For the analysis of the radioactive reaction product (immunomycin), the ethyl acetate extract was spiked with the standard immunomycin and subjected to the TLC with a plate having plastic support. The plastic sheet was developed in chloroform:methanol (9:1) and area showing standard immunomycin under UV-light was cut and the radioactivity in the cut-strip was measured. The amount of the product formed was calculated from the measured radioactivity. For the HPLC analysis of the product of the enzyme reaction, several enzymatic reaction mixtures were pooled and the extract was subjected to the TLC analysis as above. […] One milliliter fractions were collected and a portion of each fraction was examined for the radioactivity. […]

[5] = substrate: [H][C@@]1(/C=C(\C)[C@@]2([H])OC(=O)[C@]3([H])CCCCN3C(=O)C(=O)[C@]3(O)O[C@]([H])([C@@H](OC)C[C@@H](C)C/C(C)=C/[C@@H](CC)C(=O)C[C@H](O)[C@H]2C)[C@@H](OC)C[C@H]3C)CC[C@@H](O)[C@H](O)C1; experiment: purified protein, by the assay type; settings: other: 31-O-desmethylimmunomycin as variable substrate, 40 uM SAM; Lineweaver-Burk; pH 7.5
[6] = Mus musculus, T-cell, HPLC purified samples, evaluated in the same set of experiments, read-out: IC50 (biological activity)

## CC[C@@H]1/C=C(\C)C[C@H](C)C[C@H](OC)[C@H]2O[C@@](O)(C(=O)C(=O)N3CCCC[C@H]3C(=O)O[C@H](/C(C)=C/[C@@H]3CC[C@@H](O)[C@H](O)C3)[C@H](C)[C@@H](O)CC1=O)[C@H](C)C[C@@H]2OC [31-O-desmethylimmunomycin]
[1]; 31-O-desmethylimmunomycin as variable substrate, 40 uM SAM, Lineweaver-Burk
  apparent Vmax: 45.5 nmol/h/mg

## CC[C@@H]1C=C2COC1(O)C[C@H](O)[C@@H](C)[C@@H](/C(C)=C/[C@@H]1CC[C@@H](O)[C@H](OC)C1)OC(=O)[C@@H]1CCCCN1C(=O)C(=O)[C@]1(O)O[C@H]([C@@H](OC)C[C@@H](C)C2)[C@@H](OC)C[C@H]1C [Compound II]
[2]; [6]
  IC50: ~6 nM
[2]
  Inhibition of T-cell activation (result in words): positive inhibition of T-cell activation; also recorded: positive results

## CC[C@@H]1C=C2COC1(O)C[C@H](O)[C@@H](C)[C@@H](/C(C)=C/[C@@H]1CC[C@@H](O)[C@H](O)C1)OC(=O)[C@@H]1CCCCN1C(=O)C(=O)[C@]1(O)O[C@H]([C@@H](OC)C[C@@H](C)C2)[C@@H](OC)C[C@H]1C [Compound I]
[2]; Mus musculus, T-cell, 2.5 nM, tritiated thymidine uptake, harvest at 48 hours, read-out: Percent of Inhibition
  inhibition at 0.0025 µM: 0%
[2]; Mus musculus, T-cell, 4.9 nM, tritiated thymidine uptake, harvest at 48 hours, read-out: Percent of Inhibition
  inhibition at 0.0049 µM: 0%
[2]; Mus musculus, T-cell, 9.9 nM, tritiated thymidine uptake, harvest at 48 hours, read-out: Percent of Inhibition
  inhibition at 0.0099 µM: 39%
[2]; Mus musculus, T-cell, 19.7 nM, tritiated thymidine uptake, harvest at 48 hours, read-out: Percent of Inhibition
  inhibition at 0.0197 µM: 65%
[2]; Mus musculus, T-cell, 39.4 nM, tritiated thymidine uptake, harvest at 48 hours, read-out: Percent of Inhibition
  inhibition at 0.0394 µM: 89%
[2]; Mus musculus, T-cell, 78.8 nM, tritiated thymidine uptake, harvest at 48 hours, read-out: Percent of Inhibition
  inhibition at 0.0788 µM: 95%
[2]; Mus musculus, T-cell, 157.6 nM, tritiated thymidine uptake, harvest at 48 hours, read-out: Percent of Inhibition
  inhibition at 0.1576 µM: 98%
[2]; Mus musculus, T-cell, 315.2 nM, tritiated thymidine uptake, harvest at 48 hours, read-out: Percent of Inhibition
  inhibition at 0.3152 µM: 98%
[2]; [6]
  IC50: ~11 nM
[2]; Mus musculus, T-cell proliferation, Example 4, read-out: IC50
  IC50: 0.0115 µg/mL and 14.5 nM
[2]
  Inhibition of T-cell activation (result in words): positive inhibition of T-cell activation; also recorded: antagonist activity versus the FK-506 immunosuppressive activity
[2]; addition of 50 units/ml of recombinant IL2 at the initiation of culture
  Effect of IL2 on inhibition of T-cell proliferation: reversed

## O=C(O)CN(CCN(CC(=O)O)CC(=O)O)CC(=O)O [EDTA]
[1]
  Inhibition of DIMT activity: major inhibition
[1]; crude extract
  Inhibition of DIMT activity: completely inhibited

## C=CC[C@@H]1/C=C(\C)C[C@H](C)C[C@H](OC)[C@H]2O[C@@](O)(C(=O)C(=O)N3CCCC[C@H]3C(=O)O[C@H](/C(C)=C/[C@@H]3CC[C@@H](O)[C@H](OC)C3)[C@H](C)[C@@H](O)CC1=O)[C@H](C)C[C@@H]2OC [FR900506, reference compound]
[2]; Mus musculus, T-cell, 10 ng/ml, standard
  inhibition at 0.01 µg/mL: 99%
[3]
  Effectiveness relative to cyclosporin: 100 times

## CC[C@@H]1/C=C(\C)C[C@H](C)C[C@H](OC)[C@H]2O[C@@](O)(C(=O)C(=O)N3CCCC[C@H]3C(=O)O[C@H](/C(C)=C/[C@@H]3CC[C@@H](O)[C@H](OC)C3)[C@H](C)[C@@H](O)CC1=O)[C@H](C)C[C@@H]2OC [FR-900520, 17-Ethyl-1,14-dihydroxy-12-[2-(4-hydroxy-3-methoxycyclohexyl)-1-methylvinyl]-23-25-dimethoxy-13,19,21,27-tetramethyl-11,28-dioxa-4-azatricyclo [22.3.1.0^4,9]octacos-18-ene-2,3,10,16-tetraone]
[2]; [6]
  IC50: ~1 nM

## Nc1ncnc2c1ncn2[C@@H]1O[C@H](CSCC[C@H](N)C(=O)O)[C@@H](O)[C@H]1O [S-adenosyl-homocysteine (SAH), S-adenosyl-homocysteine]
[1]
  Inhibition of DIMT activity: major inhibition

## N.N.O=S(=O)(O)O [ammonium sulfate]
[1]; crude extract
  Inhibition of DIMT activity: inhibited

## Nc1ncnc2c1ncn2[C@@H]1O[C@H](C[C@@H](N)CC[C@H](N)C(=O)O)[C@@H](O)[C@H]1O [sinefungin]
[1]
  Inhibition of DIMT activity: major inhibition

B1: 31-O-desmethylimmunomycin O-methyltransferase (DIMT) (Streptomyces hygroscopicus subsp. ascomyceticus) (protein)
chain: MSHPVETLRLPNGTTVAHINAGEAQFLYREIFTQRCYLRHGVDLRPGDVVFDVGANIGMFTLFAHLECPGVTVHAFEPAPVPFAALRANVTRHGIPGQADQCAVSDSSGTRKMTFYPDATLMSGFHADAAARTELLRTLGLNGGYTAEDVDTMLAQLPDVSEEIETPVVRLSDVIAERGIEAIGLLKVDVEKSERQVFAGLEDTDWPRIRQVVAEVHDIDGALEEVVTLLRGHGFTVVAEQEPLFAGTGIHQVAARRVAG
[4]
  Km: 12.5 µM
  Vmax: 100 nmol/h/mg
[5]
  Km: 11 µM
